PMC5940854, “Nitrothiophene carboxamides, a novel narrow spectrum antibacterial series: Mechanism of action and Efficacy” (Scientific Reports, 2018)
In brackets after ≈: the same amount, converted by molar mass. Values belong to the compound of their own block, whether it stands above or below them. Residues, ends and D or L forms follow the SMILES beside them. *: point of attachment. βNA = c1ccc2cc(N*)ccc2c1

Legend:
[1] = system: E. coli clinical isolates; experiment: MIC on panel of E. coli clinical isolates; format: cell-based
ATCC25922 = experiment: MIC on E. coli ATCC25922; format: cell-based; conditions: strain ATCC25922
Protocol: The inoculum used for all the experiments is derived from a single seed lot that is maintained as glycerol stocks at −80 °C and are sub cultured on LB plate for isolated colonies. Single colony of each strain is grown in M9 medium. All test compound stocks and dilutions are prepared in DMSO. Serial two-fold dilutions of compounds are prepared separately, with the concentrations ranging from 2 mg/mL to 0.015 mg/mL. To 150 µl (3–7 × 10^5 CFU/ml) of bacterial culture in 96 well microtitre plates, 3 μL compound from each of the dilutions is added to respective wells to obtain final concentrations ranging from 40 µg/mL to 0.3 µg/mL of the test compounds. Media control, culture control and appropriate reference drug controls are included. […] Growth is monitored by checking absorbance at 600 nm (A600). […] The samples from MIC and above concentrations are plated for MBC (Minimum Bactericidal Concentration). The samples are diluted 1:10 and plated on LB agar plates. […] The killing kinetics is determined by enumerating survivors at various time points following compound exposure. E. coli cells (~10^7 CFU/ml; A600 of 0.1) are treated with various concentrations (40 µg/mL to 0.3 µg/mL) of compounds in a 96-well microtitre plate. At various time intervals (0 to 8 h), 30 μl volumes of treated cultures are serially diluted and plated on LB agar plates. […] Data is expressed as the log10 CFU for each drug treatment.

[2] = biological target: T1, AcrB efflux pump in E. coli BW25113 (Escherichia coli, UniProt P31224); experiment: Nile red efflux assay (whole-cell competition); format: cell-based
T1 construct: endogenous in cells; host or cells: E. coli BW25113 (wild type)
Protocol: The Nile red assay is adopted from Bohnert et al.[18]. An overnight culture of E. coli strain BW25113 is harvested and is resuspended in 20 mM potassium phosphate buffer (pH 7.0) containing 1 mM MgCl2 (PPB). The cells are adjusted to an A660 of 1.0 in PPB and aliquoted into glass tubes (2 ml each). Carbonylcyanide-m-chlorophenylhydrazone (CCCP; a protonophore that uncouples the electron transport chain and thus inhibits AcrB mediated efflux) is added to a final concentration of 10 µM (5 mM stock solution in 50% DMSO) and incubated for 15 minutes before adding the potential competitor at desired concentrations. Nile red is then added (stock solution of 5 mM in 10% dimethyl formamide-90% ethanol [vol/vol]) to a final concentration of 5 µM. The cell suspension is incubated at room temperature on a shaker for 3 hours. The cells are harvested and resuspended in 2 ml PPB in the presence of the competitor. The cell suspension is aliquoted in a fluorimeter cuvette, to which, 100 µl of 1 M Glucose is added to activate the electron transport chain. The rate of efflux is measured by Tefflux50, it is the time taken for 50% of Nile red to be effluxed out in presence of the compounds. The fluorescence is measured (Excitation 552 nm, Emission 636 nm) for 200 seconds.

AcrB = biological target: T2, AcrB (Escherichia coli, UniProt P31224); experiment: Thermal shift assay with CPM dye; design: species or system E. coli; conditions: AcrB vs apo-protein; > 1°C implies binding
T2 construct: Full length acrB gene was amplified from E. coli; BW25113; His-tag (C); made in house; host or cells: E. coli C43(DE3), plasmid pET21a
Protocol: AcrB overexpression protocol is adopted from Du. et al.[31]. Full length acrB gene was amplified from E. coli. BW25113 using Forward Primer 5′-[…]-3′ Reverse Primer 5′-[…]-3′ and cloned into the plasmid pET21a. The resultant plasmid that would express AcrB with a C-terminal His-tag is transformed into E. coli strain C43(DE3). The cells are induced on reaching A600 = 0.6 and transferred to 18 °C. The culture is harvested by centrifugation and re-suspended in Buffer A (100 mM Sodium Phosphate, 100 mM NaCl, 10 mM Imidazole, pH = 7.4, 100 µg/ml protease inhibitor cocktail from Roche and 5 U/ml DNase I and 5 mg/ml lysozyme). The cells are lysed at 15000 psi using Emulsiflex and centrifuged at 8000 g for removing cell debris. The membrane is isolated by centrifuging the resultant supernatant at 125000 g (see Coomassie stained SDS-PAGE of the purified protein Figure S9). Membrane solubilisation is done using Buffer A and 1.5% DDM (n-Dodecyl-β-D-Maltoside). Ni-NTA chromatography is used to purify the His-tagged protein and eluted in Buffer A with 300 mM Imidazole and 1.5% DDM.
The assay is performed according to protocols established elsewhere. CPM (N- [4-(7-diethylamino-4-methyl-3-coumarinyl) phenyl] maleimide) is a thiol specific fluorochrome (Excitation 387 nm, Emission 463 nm) and is non-fluorescent in an unbound state. The proteins, on thermal unfolding exposes cysteines allowing the CPM to bind and fluoresce. […]. The thermal denaturation is performed in a fluorimeter that is heated from 25 to 90 °C at a ramp rate of 1 °C/min. The Tm is calculated by analysing the melting profiles using Boltzmann Sigmoid function (GraphPad Prism) and ∆Tm is calculated by measuring the difference between the Tm of inhibitor bound protein and the apo-protein.

T1 sequence (P0AE06 25-397): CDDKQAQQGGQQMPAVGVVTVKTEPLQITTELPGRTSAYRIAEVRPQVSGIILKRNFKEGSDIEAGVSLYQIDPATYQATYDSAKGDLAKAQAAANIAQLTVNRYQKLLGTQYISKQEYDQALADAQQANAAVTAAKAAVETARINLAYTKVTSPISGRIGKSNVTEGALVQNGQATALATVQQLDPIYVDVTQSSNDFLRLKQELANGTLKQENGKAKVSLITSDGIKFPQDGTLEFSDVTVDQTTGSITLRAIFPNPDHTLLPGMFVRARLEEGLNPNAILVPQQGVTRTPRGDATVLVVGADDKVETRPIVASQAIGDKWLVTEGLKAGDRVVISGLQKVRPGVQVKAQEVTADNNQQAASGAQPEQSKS
T1 sequence (P31224 whole entry): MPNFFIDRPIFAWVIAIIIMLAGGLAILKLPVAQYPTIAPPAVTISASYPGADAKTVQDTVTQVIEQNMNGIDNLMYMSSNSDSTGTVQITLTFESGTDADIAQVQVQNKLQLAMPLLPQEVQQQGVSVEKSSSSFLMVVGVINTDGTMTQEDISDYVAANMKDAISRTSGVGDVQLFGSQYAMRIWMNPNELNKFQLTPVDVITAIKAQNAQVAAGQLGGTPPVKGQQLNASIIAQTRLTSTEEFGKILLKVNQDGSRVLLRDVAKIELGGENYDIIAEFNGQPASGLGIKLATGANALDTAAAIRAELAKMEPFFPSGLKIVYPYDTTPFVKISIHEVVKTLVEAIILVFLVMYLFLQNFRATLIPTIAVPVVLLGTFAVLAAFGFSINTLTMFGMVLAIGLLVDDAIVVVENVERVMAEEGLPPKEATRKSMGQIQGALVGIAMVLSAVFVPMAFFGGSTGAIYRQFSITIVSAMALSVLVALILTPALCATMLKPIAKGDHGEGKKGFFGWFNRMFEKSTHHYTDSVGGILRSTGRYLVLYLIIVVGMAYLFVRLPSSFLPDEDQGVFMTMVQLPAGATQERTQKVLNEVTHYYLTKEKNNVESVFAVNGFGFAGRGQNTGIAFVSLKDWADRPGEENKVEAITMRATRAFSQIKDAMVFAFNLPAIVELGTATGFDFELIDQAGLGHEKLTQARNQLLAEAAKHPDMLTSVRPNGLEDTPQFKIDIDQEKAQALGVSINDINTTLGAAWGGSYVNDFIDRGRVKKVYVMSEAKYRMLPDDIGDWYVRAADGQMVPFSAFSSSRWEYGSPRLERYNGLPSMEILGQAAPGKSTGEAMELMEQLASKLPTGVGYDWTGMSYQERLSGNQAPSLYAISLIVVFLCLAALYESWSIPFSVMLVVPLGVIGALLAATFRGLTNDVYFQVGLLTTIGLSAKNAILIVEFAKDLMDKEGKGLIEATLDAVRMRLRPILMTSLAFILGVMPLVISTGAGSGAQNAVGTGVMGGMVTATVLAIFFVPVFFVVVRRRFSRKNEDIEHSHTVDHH
T1 sequence (P02930 23-493, further chain): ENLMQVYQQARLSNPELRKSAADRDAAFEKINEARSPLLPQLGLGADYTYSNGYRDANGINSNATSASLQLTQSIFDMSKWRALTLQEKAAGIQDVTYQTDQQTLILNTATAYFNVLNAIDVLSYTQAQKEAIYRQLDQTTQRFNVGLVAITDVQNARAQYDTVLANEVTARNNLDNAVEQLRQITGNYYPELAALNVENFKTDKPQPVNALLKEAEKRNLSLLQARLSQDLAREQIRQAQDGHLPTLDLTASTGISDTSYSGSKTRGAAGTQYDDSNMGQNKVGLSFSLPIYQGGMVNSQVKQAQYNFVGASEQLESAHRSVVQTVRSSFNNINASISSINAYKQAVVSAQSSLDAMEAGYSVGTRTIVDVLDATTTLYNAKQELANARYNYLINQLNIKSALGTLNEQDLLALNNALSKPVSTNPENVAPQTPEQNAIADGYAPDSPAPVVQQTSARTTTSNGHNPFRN
T2 sequence (P31224 whole entry): as the sequence (P31224 whole entry) above

MIC50 ([1]; Escherichia coli, 75 E.coli clinical isolates, 50% clinical isolates): 16 µg/mL (≈ 33.5 µM)
MIC90 ([1]; Escherichia coli, 75 E.coli clinical isolates, 90% clinical isolates): > 64 µg/mL
MIC ([1]; strain SEC001): > 64 µg/mL
MIC ([1]; strain SEC002): 4 µg/mL (≈ 8.38 µM)
MIC ([1]; strain SEC003): > 64 µg/mL
MIC ([1]; strain SEC004): 4 µg/mL (≈ 8.38 µM)
MIC ([1]; strain SEC005): > 64 µg/mL
MIC ([1]; strain SEC006): 4 µg/mL (≈ 8.38 µM)
MIC ([1]; strain SEC007): > 64 µg/mL
MIC ([1]; strain SEC008): > 64 µg/mL
MIC ([1]; strain SEC011): > 64 µg/mL
MIC ([1]; strain SEC012): 4 µg/mL (≈ 8.38 µM)
MIC ([1]; strain SEC013): > 64 µg/mL
MIC ([1]; strain SEC014): > 64 µg/mL
MIC ([1]; strain SEC015): > 64 µg/mL
MIC ([1]; strain SEC016): 4 µg/mL (≈ 8.38 µM)
MIC ([1]; strain SEC017): > 64 µg/mL
MIC ([1]; strain SEC018): 0.5 µg/mL (≈ 1.05 µM)
MIC ([1]; strain SEC019): > 64 µg/mL
MIC ([1]; strain SEC020): 2 µg/mL (≈ 4.19 µM)
MIC ([1]; strain SEC021): > 64 µg/mL
MIC ([1]; strain SEC022): > 64 µg/mL
MIC ([1]; strain SEC023): 4 µg/mL (≈ 8.38 µM)
MIC ([1]; strain SEC024): > 64 µg/mL
MIC ([1]; strain SEC025): > 64 µg/mL
MIC ([1]; strain SEC026): 2 µg/mL (≈ 4.19 µM)
MIC ([1]; strain SEC028): 2 µg/mL (≈ 4.19 µM)
MIC ([1]; strain SEC029): 4 µg/mL (≈ 8.38 µM)
MIC ([1]; strain SEC031): > 64 µg/mL
MIC ([1]; strain SEC032): 4 µg/mL (≈ 8.38 µM)
MIC ([1]; strain SEC033): > 64 µg/mL
MIC ([1]; strain SEC034): 2 µg/mL (≈ 4.19 µM)
MIC ([1]; strain SEC035): > 64 µg/mL
MIC ([1]; strain SEC036): 4 µg/mL (≈ 8.38 µM)
MIC ([1]; strain SEC037): 4 µg/mL (≈ 8.38 µM)
MIC ([1]; strain SEC038): 4 µg/mL (≈ 8.38 µM)
MIC ([1]; strain SEC039): 2 µg/mL (≈ 4.19 µM)
MIC ([1]; strain SEC040): 32 µg/mL (≈ 67 µM)
MIC ([1]; strain SEC041): 4 µg/mL (≈ 8.38 µM)
MIC ([1]; strain SEC042): > 64 µg/mL
MIC ([1]; strain SEC043): > 64 µg/mL
MIC ([1]; strain SEC044): > 64 µg/mL
MIC ([1]; strain SEC045): 4 µg/mL (≈ 8.38 µM)
MIC ([1]; strain SEC046): 4 µg/mL (≈ 8.38 µM)
MIC ([1]; strain SEC047): > 64 µg/mL
MIC ([1]; strain SEC048): 4 µg/mL (≈ 8.38 µM)
MIC ([1]; strain SEC049): 4 µg/mL (≈ 8.38 µM)
MIC ([1]; strain SEC050): > 64 µg/mL
MIC ([1]; strain SEC051): 2 µg/mL (≈ 4.19 µM)
MIC ([1]; strain SEC052): 2 µg/mL (≈ 4.19 µM)
MIC ([1]; strain SEC053): > 64 µg/mL
MIC ([1]; strain SEC054): 8 µg/mL (≈ 16.8 µM)
MIC ([1]; strain SEC055): 2 µg/mL (≈ 4.19 µM)
MIC ([1]; strain SEC057): 4 µg/mL (≈ 8.38 µM)
MIC ([1]; strain SEC058): 4 µg/mL (≈ 8.38 µM)
MIC ([1]; strain SEC059): 2 µg/mL (≈ 4.19 µM)
MIC ([1]; strain SEC060): 32 µg/mL (≈ 67 µM)
MIC ([1]; strain SEC061): > 64 µg/mL
MIC ([1]; strain SEC062): 8 µg/mL (≈ 16.8 µM)
MIC ([1]; strain SEC063): 0.5 µg/mL (≈ 1.05 µM)
MIC ([1]; strain SEC064): > 64 µg/mL
MIC ([1]; strain SEC065): > 64 µg/mL
MIC ([1]; strain SEC067): 4 µg/mL (≈ 8.38 µM)
MIC ([1]; strain SEC068): > 64 µg/mL
MIC ([1]; strain SEC069): > 64 µg/mL
MIC ([1]; strain SEC070): > 64 µg/mL
MIC ([1]; strain SEC071): 32 µg/mL (≈ 67 µM)
MIC ([1]; strain SEC072): > 64 µg/mL
MIC ([1]; strain SEC073): > 64 µg/mL
MIC ([1]; strain SEC074): > 64 µg/mL
MIC ([1]; strain SEC075): > 64 µg/mL
MIC ([1]; strain SEC076): 4 µg/mL (≈ 8.38 µM)
MIC ([1]; strain SEC077): 16 µg/mL (≈ 33.5 µM)
MIC ([1]; strain SEC078): > 64 µg/mL
MIC ([1]; strain SEC079): > 64 µg/mL
MIC ([1]; strain SEC080): 4 µg/mL (≈ 8.38 µM)
MIC (ATCC25922): 2 µg/mL (≈ 4.19 µM)
Compound: CNC(C)C1CCC(N)C(OC2C(N)CC(N)C(OC3OCC(C)(O)C(NC)C3O)C2O)O1 (stereo not shown) [gentamicin, reference compound]

Compound: NC(N)=NCCC[C@H](NC(=O)[C@@H](N)Cc1ccccc1)C(=O)Nc1ccc2ccccc2c1 [PAβN, Phenylalanine-Arginine Beta-Naphthylamide, reference compound] (H-Phe-Arg-βNA)
Tefflux50 ([2]; 1µM compound, time for 50% of Nile red to be effluxed, read for 200 seconds): 200 s
Tefflux50 ([2]; 9µM compound): 200 s
Tefflux50 ([2]; 27µM compound): 200 s
Tefflux50 ([2]; 81µM compound): 200 s
Tefflux50 ([2]; 100µM compound): 200 s
Tefflux50 ([2]; 200µM compound): 200 s
Tefflux50 ([2]; 400µM compound): 200 s
∆Tm (AcrB): 3.84 °C
